Experimental data from patent US20240368096A1 (Enanta Pharmaceuticals, Inc., priority 2022, published 2024).

test system: HBV; assay: HBV infection in HepG2-NTCP cells (HBeAg AlphaLISA in supernatants); type: cell-based; settings: Hepatitis B virus, 192 h; HBV infection of HepG2-NTCP cells; HBeAg in supernatants at day 8 post infection; read-out: Cellular EC50
Summary of the method: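 Readout was day-8 supernatant HBeAg by AlphaLISA, with EC50 set against DMSO controls and binned A<0.1 μM, B 0.1-1 μM, C>1 μM. Compounds were added 2 h before HBV (2000 GE/cell, 4% PEG, 0.5% DMSO) to HepG2-NTCP A3 cells; from day 1 medium held 2.5% DMSO.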

EC50 [nM] | SMILES
> 1000 | CN1[C@H](C2CCCCC2)CN(c2ccccc2)c2cc(OC3CCNCC3)c(-c3ccc(F)c(C(=O)O)c3)cc2S1(=O)=O [Example 394, (R)-5-(3-cyclohexyl-2-methyl-1,1-dioxido-5-phenyl-7-(piperidin-4-yloxy)-2,3,4,5-tetrahydrobenzo[f][1,2,5]thiadiazepin-8-yl)-2-fluorobenzoic acid]
100 to 1000 | CC(=O)N1CCC(Oc2cc3c(cc2-c2ccc(F)c(C(=O)O)c2)S(=O)(=O)N(C)[C@H](C2CCCCC2)CN3c2ccccc2)CC1 [Example 395, (R)-5-(7-((1-acetylpiperidin-4-yl)oxy)-3-cyclohexyl-2-methyl-1,1-dioxido-5-phenyl-2,3,4,5-tetrahydrobenzo[f][1,2,5]thiadiazepin-8-yl)-2-fluorobenzoic acid]
< 100 | CN1[C@H](C2CCCCC2)CN(c2ccccc2)c2cc(O[C@@H]3CCN(C(=O)OC(C)(C)C)C3)c(-c3ccc(F)c(C(=O)O)c3)cc2S1(=O)=O [Example 397]
< 100 | CN1[C@H](C2CCCCC2)CN(c2ccccc2)c2cc(OC3CN(C(=O)OC(C)(C)C)C3)c(-c3ccc(F)c(C(=O)O)c3)cc2S1(=O)=O [Example 398]
> 1000 | CN1[C@H](C2CCCCC2)CN(c2ccccc2)c2cc(O[C@@H]3CCCNC3)c(-c3ccc(F)c(C(=O)O)c3)cc2S1(=O)=O [Example 399]
100 to 1000 | CC(C)NC(=O)N1CCC(Oc2cc3c(cc2-c2ccc(F)c(C(=O)O)c2)S(=O)(=O)N(C)[C@H](C2CCCCC2)CN3c2ccccc2)CC1 [Example 400, (R)-5-(3-cyclohexyl-7-((1-(isopropylcarbamoyl)piperidin-4-yl)oxy)-2-methyl-1,1-dioxido-5-phenyl-2,3,4,5-tetrahydrobenzo[f][1,2,5]thiadiazepin-8-yl)-2-fluorobenzoic acid]
< 100 | CN1[C@H](C2CCCCC2)CN(c2ccccc2)c2cc(Oc3ccccc3F)c(-c3ccc(Cl)c(C(=O)O)c3)cc2S1(=O)=O [Example 401, (R)-2-chloro-5-(3-cyclohexyl-7-(2-fluorophenoxy)-2-methyl-1,1-dioxido-5-phenyl-2,3,4,5-tetrahydrobenzo[f][1,2,5]thiadiazepin-8-yl)benzoic acid]
< 100 | CN1[C@H](C2CCCCC2)CN(c2ccccc2)c2cc(Oc3cccc(F)c3F)c(-c3ccc(F)c(C(=O)O)c3)cc2S1(=O)=O [Example 402]
< 100 | CN1[C@H](C2CCCCC2)CN(c2ccccc2)c2cc(Oc3cc(F)ccc3F)c(-c3ccc(F)c(C(=O)O)c3)cc2S1(=O)=O [Example 403]
< 100 | CN1[C@H](C2CCCCC2)CN(c2ccccc2)c2cc(Oc3ccc(F)c(F)c3)c(-c3ccc(F)c(C(=O)O)c3)cc2S1(=O)=O [Example 404]
< 100 | CN1[C@H](C2CCCCC2)CN(c2ccccc2)c2cc(Oc3cc(F)cc(F)c3)c(-c3ccc(F)c(C(=O)O)c3)cc2S1(=O)=O [Example 405]
< 100 | COc1cc(F)ccc1Oc1cc2c(cc1-c1ccc(F)c(C(=O)O)c1)S(=O)(=O)N(C)[C@H](C1CCCCC1)CN2c1ccccc1 [Example 406]
< 100 | COc1c(F)cccc1Oc1cc2c(cc1-c1ccc(F)c(C(=O)O)c1)S(=O)(=O)N(C)[C@H](C1CCCCC1)CN2c1ccccc1 [Example 407]
< 100 | COc1cc(F)cc(Oc2cc3c(cc2-c2ccc(F)c(C(=O)O)c2)S(=O)(=O)N(C)[C@H](C2CCCCC2)CN3c2ccccc2)c1 [Example 409]
< 100 | Cc1c(F)cccc1Oc1cc2c(cc1-c1ccc(F)c(C(=O)O)c1)S(=O)(=O)N(C)[C@H](C1CCCCC1)CN2c1ccccc1 [Example 410]
< 100 | Cc1ccc(Oc2cc3c(cc2-c2ccc(F)c(C(=O)O)c2)S(=O)(=O)N(C)[C@H](C2CCCCC2)CN3c2ccccc2)cc1F [Example 411]
< 100 | Cc1cc(F)cc(Oc2cc3c(cc2-c2ccc(F)c(C(=O)O)c2)S(=O)(=O)N(C)[C@H](C2CCCCC2)CN3c2ccccc2)c1 [Example 412]
100 to 1000 | Cc1ccc(F)cc1Oc1cc2c(cc1-c1ccc(F)c(C(=O)O)c1)S(=O)(=O)N(C)[C@H](C1CCCCC1)CN2c1ccccc1 [Example 413]
100 to 1000 | CN1[C@H](C2CCCCC2)CN(c2ccccc2)c2cc(Oc3ccccn3)c(-c3ccc(F)c(C(=O)O)c3)cc2S1(=O)=O [Example 414]
100 to 1000 | CN1[C@H](C2CCCCC2)CN(c2ccccc2)c2cc(Oc3cccnc3)c(-c3ccc(F)c(C(=O)O)c3)cc2S1(=O)=O [Example 415]
> 1000 | CN1[C@H](C2CCCCC2)CN(c2ccccc2)c2cc(Oc3ccncc3)c(-c3ccc(F)c(C(=O)O)c3)cc2S1(=O)=O [Example 416]
< 100 | CCCC[C@@H]1CN(c2ccccc2)c2cc(Oc3ccc(Cl)cc3)c(-c3ccc(F)c(C(=O)O)c3)cc2S(=O)(=O)N1C [Example 418]
< 100 | CCCC[C@@H]1CN(c2ccccc2)c2cc(Oc3ccccc3C(F)(F)F)c(-c3ccc(F)c(C(=O)O)c3)cc2S(=O)(=O)N1C [Example 419]
100 to 1000 | CCCC[C@@H]1CN(c2ccccc2)c2cc(Oc3cccc(OC)c3)c(-c3ccc(F)c(C(=O)O)c3)cc2S(=O)(=O)N1C [Example 420]
100 to 1000 | CCCC[C@@H]1CN(c2ccccc2)c2cc(Oc3ccc(F)cc3)c(-c3ccc(F)c(C(=O)O)c3)cc2S(=O)(=O)N1C [Example 421]
100 to 1000 | CCCC[C@@H]1CN(c2ccccc2)c2cc(Oc3ccccc3Cl)c(-c3ccc(F)c(C(=O)O)c3)cc2S(=O)(=O)N1C [Example 422]
< 100 | CCCC[C@@H]1CN(c2ccccc2)c2cc(Oc3cccc(Cl)c3)c(-c3ccc(F)c(C(=O)O)c3)cc2S(=O)(=O)N1C [Example 423]

EC50 [nM] | SMILES
< 100 | CC(C)C[C@@H]1CN(c2ccccc2)c2cc(Oc3ccccc3F)c(-c3ccc(Cl)c(C(=O)O)c3)cc2S(=O)(=O)N1C [Example 424]
< 100 | CC(C)C[C@@H]1CN(c2ccccc2)c2cc(Oc3cccc(C(F)(F)F)c3)c(-c3ccc(F)c(C(=O)O)c3)cc2S(=O)(=O)N1C [Example 425]
100 to 1000 | CC(C)C[C@@H]1CN(c2ccccc2)c2cc(Oc3ccc(C(F)(F)F)cc3)c(-c3ccc(F)c(C(=O)O)c3)cc2S(=O)(=O)N1C [Example 426]
< 100 | COc1cccc(Oc2cc3c(cc2-c2ccc(F)c(C(=O)O)c2)S(=O)(=O)N(C)[C@H](CC(C)C)CN3c2ccccc2)c1 [Example 427]
< 100 | COc1ccccc1Oc1cc2c(cc1-c1ccc(F)c(C(=O)O)c1)S(=O)(=O)N(C)[C@H](CC(C)C)CN2c1ccccc1 [Example 428]
< 100 | CC(C)C[C@@H]1CN(c2ccccc2)c2cc(Oc3ccccc3F)c(-c3ccc(F)c(C(=O)O)c3)cc2S(=O)(=O)N1C [Example 429]
< 100 | CC(C)C[C@@H]1CN(c2ccccc2)c2cc(Oc3ccc(F)cc3)c(-c3ccc(F)c(C(=O)O)c3)cc2S(=O)(=O)N1C [Example 430]
< 100 | CC(C)C[C@@H]1CN(c2ccccc2)c2cc(Oc3ccccc3Cl)c(-c3ccc(F)c(C(=O)O)c3)cc2S(=O)(=O)N1C [Example 431]
100 to 1000 | CC(C)C[C@@H]1CN(c2ccccc2)c2cc(Oc3cccc(Cl)c3)c(-c3ccc(F)c(C(=O)O)c3)cc2S(=O)(=O)N1C [Example 432]
100 to 1000 | CC(C)C[C@@H]1CN(c2ccccc2)c2cc(Oc3ccc(Cl)cc3)c(-c3ccc(F)c(C(=O)O)c3)cc2S(=O)(=O)N1C [Example 433]
100 to 1000 | CC(C)C[C@@H]1CN(c2ccccc2)c2cc(Oc3ccc(Cl)c(C(F)(F)F)c3)c(-c3ccc(F)c(C(=O)O)c3)cc2S(=O)(=O)N1C [Example 434]
< 100 | CC(C)C[C@@H]1CN(c2ccccc2)c2cc(Oc3cc(Cl)cc(Cl)c3)c(-c3ccc(F)c(C(=O)O)c3)cc2S(=O)(=O)N1C [Example 435]
< 100 | Cc1ccc(Cl)c(Oc2cc3c(cc2-c2ccc(F)c(C(=O)O)c2)S(=O)(=O)N(C)[C@H](CC(C)C)CN3c2ccccc2)c1 [Example 436]
< 100 | CC(C)C[C@@H]1CN(c2ccccc2)c2cc(Oc3ccccc3OC(F)(F)F)c(-c3ccc(F)c(C(=O)O)c3)cc2S(=O)(=O)N1C [Example 437]
< 100 | CC(C)C[C@@H]1CN(c2ccccc2)c2cc(Oc3cccc(OC(F)(F)F)c3)c(-c3ccc(F)c(C(=O)O)c3)cc2S(=O)(=O)N1C [Example 438]
< 100 | CC(C)C[C@@H]1CN(c2ccccc2)c2cc(Oc3ccc(OC(F)(F)F)cc3)c(-c3ccc(F)c(C(=O)O)c3)cc2S(=O)(=O)N1C [Example 439]
< 100 | CC(C)C[C@@H]1CN(c2ccccc2)c2cc(OC(C)(C)C)c(-c3ccc(Cl)c(C(=O)O)c3)cc2S(=O)(=O)N1C [Example 440]
< 100 | CC(C)C[C@@H]1CN(c2ccccc2)c2cc(OC34CC5CC(CC(C5)C3)C4)c(-c3ccc(F)c(C(=O)O)c3)cc2S(=O)(=O)N1C [Example 441]
< 100 | CC(C)C[C@@H]1CN(c2ccccc2)c2cc(O[C@@H]3C[C@H](C)CCC3C(C)C)c(-c3ccc(F)c(C(=O)O)c3)cc2S(=O)(=O)N1C (some centres unmarked) [Example 442]
100 to 1000 | CC(C)C[C@@H]1CN(c2ccccc2)c2cc(OC3COC3)c(-c3ccc(F)c(C(=O)O)c3)cc2S(=O)(=O)N1C [Example 443]
100 to 1000 | CC(C)C[C@@H]1CN(c2ccccc2)c2cc(OC3CC4(COC4)C3)c(-c3ccc(F)c(C(=O)O)c3)cc2S(=O)(=O)N1C [Example 444]
100 to 1000 | COCCOc1cc2c(cc1-c1ccc(Cl)c(C(=O)O)c1)S(=O)(=O)N(C)[C@H](CC(C)C)CN2c1ccccc1 [Example 445]
100 to 1000 | CC(C)C[C@@H]1CN(c2ccccc2)c2cc(O[C@H]3CCOC3)c(-c3ccc(F)c(C(=O)O)c3)cc2S(=O)(=O)N1C [Example 446]
> 1000 | CC(C)C[C@@H]1CN(c2ccccc2)c2cc(OC3CN(C)C3)c(-c3ccc(F)c(C(=O)O)c3)cc2S(=O)(=O)N1C [Example 447]
> 1000 | CC(C)C[C@@H]1CN(c2ccccc2)c2cc(OC3CCN(C)CC3)c(-c3ccc(F)c(C(=O)O)c3)cc2S(=O)(=O)N1C [Example 448]
> 1000 | CC(C)C[C@@H]1CN(c2ccccc2)c2cc(OCC3CCCN3C)c(-c3ccc(F)c(C(=O)O)c3)cc2S(=O)(=O)N1C (some centres unmarked) [Example 449]
